Series [1] can be described thus: Steady-state NDP kinase activity, coupled enzymes (pyruvate kinase, lactate dehydrogenase). In kind it is biochemical. Particulars: for specific activity: standard conditions: [ATP]=1 mM, [dTDP]=0.2 mM, 20° C. The procedure: The activity of NDP kinase was measured at 20° C. with ATP and dTDP as substrates using coupled enzymes (pyruvate kinase and lactate dehydrogenase) (Lascu 1993). One unit is the amount of enzyme that catalyzes the phosphotransfer of 1 μmol/min under standard conditions: [ATP]=1 mM, [dTDP]=0.2 mM. Rate constants (kcat) and Michaelis constants (Km) were determined from initial velocities for two different constant ratios of nucleotide [dTDP]/[ATP]=0.05 0.1 with [ATP] varying from 0.2 to 2 mM. kcat is expressed by enzyme subunit. The ratio of the ^apparentkcat/^apparentKM at a given concentration of the other substrate is equal to the true value of kcat/KM for a ping-pong enzyme.

The target in series [2] is T1, human NDP kinase A (NDPK-A) variant L55H-N115S, SEQ ID NO: 3 (Homo sapiens, UniProt P15531, L55H/N115S).
T1 construct: made in house; host or cells: E. coli
As to the kind of experiment: Pre-steady-state phosphotransfer, fluorescence stopped-flow. The class given is biochemical. The following applies: for enhancement of ability to phosphorylate: substitution of Asn 115 for Ser and Leu 55 for His; for k2/Ks: catalytic efficiency of phosphotransfer; for Specificity change (R): ratio of catalytic efficiencies analog vs natural nucleotide, mutant vs wild type. The procedure: (§1) FIG. 3 depicts the catalytic efficiency of NDPK-A and mutants for nucleoside analogs. The rates of phosphorylation of pure recombinant NDP kinases (1 μM) were measured at the pre-steady state in a fluorescence stopped-flow with d4T-TP (10 to 80 μM). The catalytic efficiency (expressed in M^−1s^−1) was determined from the variation of the rate as a function of analog as shown in FIG. 2 (▾, NDPK-A, ♦ L55H, ● N115S, ▪ L55H-N115S).
(§2) The activity assays were performed at the pre-steady state level.
(§3) R, the specificity change, is the ratio of the catalytic efficiencies (for analog versus natural nucleotide) of the mutant compared to the wild type enzyme.
(§4) Wild type human NDPK-A and the mutants were expressed and purified according to Schneider et al., 2000, Mol Pharm. Recombinant wild type and mutant Dd-NDPK were obtained as described (Schneid, 1998a), except for N119Y NDP kinase which was partially purified by Q sepharose FF chromatography. Each protein was characterized by […] electrophoresis. The concentration of 17 kDa subunits of the enzyme was either determined by Bradford assay ([…]) or using an absorbance coefficient of ΔA^280=1.249 for a 1 mg/mL solution of human wild type and N115S NDPK-A, and =0.55 for wild type and mutant N119S, N119T Dd-NDP kinases, respectively.
(§5) As the diphosphate form of analogs were not always available, the triphosphate analogs were used to study phosphate transfer in reaction as in Scheme I. Experiments were performed with an Hi-Tech DX2 microvolume stopped-flow reaction (Schneider, 1998) at Aexc=296 nm (for Ado derivatives) or […] (for other nucleotides), 2 mm excitation slit and a 320 nm cutoff filter at the emission. After mixing NDPK (1 μM) and NTP or an analogTP (10-500 μM), the intrinsic protein fluorescence was recorded for 10-200 sec. In each experiment, 400 pairs of data were recorded, and the data from 3-4 identical experiments were averaged and fitted to a number of non-linear analytical equations using the software provided by Hi-Tech.
(§6) The data were analyzed using the reaction scheme: [drawing 1]
(§7) In both the forward and the reverse reactions, the product concentration remains very low, thus the product binding can be neglected, and the observed single step could be attributed to the phosphotransfer (Schneider, 1998). The rate of this observed single step is: [formula]
(§8) and reaches a limiting value (k+2) at NTP saturation. […] Therefore, catalytic efficiencies of phosphorylation (CEphos=k+2/(k−1/k+1)=k+2/KS) were measured, which are equivalent to second order constants and allow a reliable comparison of a variety of NDP kinase substrates.

Series [3] concerns the target T2, human NDP kinase A (NDPK-A, nm23-H1), wild type (Homo sapiens, UniProt P15531).
T2 construct: made in house
The description is as above. In kind it is biochemical. The following applies: for k2/Ks: catalytic efficiency of phosphotransfer, NDPK-A, pre-steady state. The procedure: as §1, §2, §4, §5, §6, §7, §8

In series [4] the target is T3, human NDP kinase A (NDPK-A) variant N115S, SEQ ID NO: 2 (Homo sapiens, UniProt P15531, N115S).
T3 construct: made in house; host or cells: E. coli
Described as above. The class given is biochemical. The following applies: for k2/Ks: catalytic efficiency of phosphotransfer; for Specificity change (R): ratio of catalytic efficiencies analog vs natural nucleotide, mutant vs wild type. The procedure:
as §1, §2, §3, §4, §5, §6, §7, §8

For series [5], the target named is T4, human NDP kinase A (NDPK-A) variant L55H (Homo sapiens, UniProt P15531, L55H).
T4 construct: made in house; host or cells: E. coli
Described as above. In kind it is biochemical. Particulars: for k2/Ks: catalytic efficiency of phosphotransfer; for Specificity change (R): ratio of catalytic efficiencies analog vs natural nucleotide, mutant vs wild type. The procedure:
as §1, §2, §3, §4, §5, §6, §7, §8

In series [6] the target is T5, Dictyostelium discoideum NDP kinase (Dd-NDPK) variant N119S, SEQ ID NO: 1 (Dictyostelium discoideum, UniProt P22887, N119S).
T5 construct: made in house
Described as above. The class given is biochemical. The following applies: for k2/Ks: catalytic efficiency of phosphotransfer, N119S, pre-steady state. The procedure:
(§9) (A) Kinetics of reaction of phosphorylated Dictyostelium wild type and N119S NDP kinases by 100 μM Acyclovir diphosphate (Acy-DP). The phosphorylated enzyme was prepared with a stoichiometry #1 as described (Deville-Bonne 1996). The kinases were preincubated with ATP in excess in buffer T (50 mM Tris-HCl, pH 7.5, 5 mM MgCl2 and 75 mM KCl). The increase in fluorescence upon mixing the phospho-enzyme (1 μM, final concentration) with Acy-DP in buffer T at 20° C. was monitored with a stopped-flow. The solid lines represent the best fit of each curve to a monoexponential.
(§10) (B) Concentration dependence of the rate constant on Acy-DP concentation. The pseudo-first order rate constant for the reaction (kobs) was plotted against Acy-DP.
(§11) All numbers in italics have already been published (Schneider, 1998, 2000) The kinetic constants were measured at the pre-steady-state level using a fluorescence stopped-flow device. The binding constants were determined at equilibrium by recording the increase in fluorescence (Schneider, 2000). Values are the average of three independent determinations.
as §4
as §5, with “Hi-Tech. All curves fitted to single exponentials.” for “Hi-Tech.”
as §6, §7
(§12) and reaches a limiting value (k+2) at NTP saturation. Saturation could not be obtained with the concentrations of any NTP used here. Therefore, catalytic efficiencies of phosphorylation (CEphos=k+2/(k−1/k+1)=k+2/KS) were measured, which are equivalent to second order constants and allow a reliable comparison of a variety of NDP kinase substrates.

In series [7] the target is T6, Dictyostelium discoideum NDP kinase (Dd-NDPK), wild type (Dictyostelium discoideum, UniProt P22887).
T6 construct: made in house
The description is as above. In kind it is biochemical. The following applies: catalytic efficiency of phosphotransfer, wt. The procedure:
as §9, §10, §11, §4
as §5, with “Hi-Tech. All curves fitted to single exponentials.” for “Hi-Tech.”
as §6, §7, §12

For series [8], the target named is T7, Dictyostelium NDP Kinase N119S (Dictyostelium discoideum, UniProt P22887, N119S).
T7 construct: made in house
Description: Pre-steady-state fluorescence stopped-flow phosphotransfer from nucleoside triphosphates, N119S Dd-NDPK. The class given is biochemical. The following applies: pre-steady state, stopped-flow; average of three determinations. The procedure: as §11
as §5, with “Hi-Tech. All curves fitted to single exponentials.” for “Hi-Tech.”
as §6, §7, §12

The target of series [9] is T8, Dictyostelium discoideum NDP kinase inactive variant EI (H122G-F64W) (Dictyostelium discoideum, UniProt P22887, F64W/H122G).
T8 construct: made in house
As to the kind of experiment: biochemical. In kind it is binding. The procedure:
(§13) The binding constants were determined at equilibrium by recording the increase in fluorescence (Schneider, 2000).
(§14) Analog binding affinity was measured using a variant of Dd-NDPK (EI) as described (Schneider, 2000). […] The mutation N119S was inserted in EI in order to measure the nucleotide affinity by fluorescence titration.
(§15) Altered bases as compared to the wild type sequence are underlined in bold. Sequences were checked by automatic sequencing. The mutant EI-N119S was obtained by mutation of the previously described F64W-H122G mutated NDP kinase (here called EI) (Schneider 2000).

The target of series [10] is T9, Dictyostelium discoideum NDP kinase inactive variant EI-N119S (H122G-F64W-N119S) (Dictyostelium discoideum, UniProt P22887, F64W/H122G/N119S).
T9 construct: made in house
As to the kind of experiment: biochemical. The class given is binding. The procedure:
as §13, §14, §15

Positions count from the first letter of the chain named. Names may count otherwise.

T5 sequence (P22887 whole entry N119S): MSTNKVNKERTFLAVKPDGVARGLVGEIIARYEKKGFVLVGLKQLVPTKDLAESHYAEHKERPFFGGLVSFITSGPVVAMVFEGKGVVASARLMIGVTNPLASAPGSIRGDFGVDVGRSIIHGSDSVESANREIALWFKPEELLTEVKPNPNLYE
T3 sequence (P15531 whole entry N115S): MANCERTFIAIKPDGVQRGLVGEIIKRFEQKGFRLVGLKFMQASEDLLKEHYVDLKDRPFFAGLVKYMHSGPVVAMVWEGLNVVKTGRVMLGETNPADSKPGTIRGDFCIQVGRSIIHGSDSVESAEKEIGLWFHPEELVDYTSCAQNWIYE
T1 sequence (P15531 whole entry L55H/N115S): as the sequence (P15531 whole entry N115S) above, with L55H counted along it
T9 sequence (P22887 whole entry F64W/N119S/H122G): as the sequence (P22887 whole entry N119S) above, with F64W, H122G counted along it
T4 sequence (P15531 whole entry L55H): as the sequence (P15531 whole entry N115S) above, with L55H, S115N counted along it
T2 sequence (P15531 whole entry): as the sequence (P15531 whole entry N115S) above, with S115N counted along it
T6 sequence (P22887 whole entry): as the sequence (P22887 whole entry N119S) above, with S119N counted along it
T8 sequence (P22887 whole entry F64W/H122G): as the sequence (P22887 whole entry N119S) above, with F64W, S119N, H122G counted along it
T7 sequence (P22887 whole entry N119S): as the sequence (P22887 whole entry N119S) above

As for “L55H: human NDPK-A with Leu 55 replaced by His”, the “steady-state activity relative to NDPK-A” value in [1] (ATP and dTDP) is recorded as 1.6 fold. This molecule displayed a specific activity in series [1] of 1900 U/mg.

As to `Cc1cn([C@H]2C=C[C@@H](CO)O2)c(=O)[nH]c1=O` [d4T], the “enhancement of ability to phosphorylate” value in [2] was 200-300 times.

As for `Nc1nc2c(ncn2[C@H]2C[C@H](O)[C@@H](COP(=O)(O)OP(=O)(O)OP(=O)(O)O)O2)c(=O)[nH]1` [dGTP], the k2/Ks in [3] worked out at 3.6e+06 M⁻¹ s⁻¹; in series [4] (N115S, pre-steady state), 240000 M⁻¹ s⁻¹; in series [2] (L55H-N115S, pre-steady state), 500000 M⁻¹ s⁻¹; in series [5] (L55H, pre-steady state) it was 6.8e+06 M⁻¹ s⁻¹.

The term Kd denotes a measure of binding affinity in units of concentration. Regarding `Nc1ncnc2c1ncn2[C@H]1CC[C@@H](COP(=O)(O)OP(=O)(O)OP(=O)(O)O)O1` [ddATP], the k2/Ks was determined as 2700 M⁻¹ s⁻¹ in [6] and 1300 M⁻¹ s⁻¹ in [7]. In addition, in series [8], the “k2/Ks N119S (catalytic efficiency of phosphotransfer)” value amounted to 2700 M⁻¹ s⁻¹. For the same molecule, the dissociation constant (Kd) in series [9] stood at 4.6 µM; in [10], 2.6 µM.

For `Cc1cn([C@H]2CC[C@@H](COP(=O)(O)OP(=O)(O)OP(=O)(O)O)O2)c(=O)[nH]c1=O` [dideoxy-TTP], the k2/Ks in series [3] worked out at 20 M⁻¹ s⁻¹; in series [4] (N115S, pre-steady state), 170 M⁻¹ s⁻¹; in series [2] (L55H-N115S, pre-steady state) it was 2800 M⁻¹ s⁻¹; in series [5] (L55H, pre-steady state) it was 200 M⁻¹ s⁻¹. Moreover, the “Specificity change (R)” value is on record as “(100)” in series [4], “(370)” in [2] and “(6)” in [5].

For `Nc1nc2c(ncn2COCCO)c(=O)[nH]1` [acyclovir], the “enhancement of ability to phosphorylate” value in series [2] is reported as 200-300 times.

For the molecule `Cc1cn([C@H]2C=C[C@@H](COP(=O)(O)OP(=O)(O)OP(=O)(O)O)O2)c(=O)[nH]c1=O` [d4T-TP, dideoxy, didehydro-TTP], the “times more slowly than with dTTP” value in series [3] (NDPK-A wild type) is reported as 1700 times. In addition, the k2/Ks in [3] came out at 700 M⁻¹ s⁻¹; in series [4] (N115S, pre-steady state), 6250 M⁻¹ s⁻¹; in series [5] (L55H, pre-steady state), 1280 M⁻¹ s⁻¹. Further, the “factor of rate versus wild type NDPK-A” value in series [4] (N115S, pre-steady state) was found to be 1.8; in series [2] (L55H-N115S, pre-steady state), 80; in series [5] (L55H, pre-steady state) it was 9. Besides, the “Specificity change (R)” value in series [4] is recorded as “(120)”; in [2] it was “(210)”; in series [5], “(10)”. For the same molecule, the “reactivity compared with dTTP” value in series [2] (double mutant, catalytic efficiency) was “eight fold less”. Moreover, the “reaction rate compared with Dd-NDPK” value in series [5] (L55H mutant) is listed as “at the same rate as Dd-NDPK”.

For `Nc1nc2c(ncn2COCCOP(=O)(O)OP(=O)(O)OP(=O)(O)O)c(=O)[nH]1` [acyclovirTP], the “ranking as analog substrate” value in [6] (N119S NDP kinase) was “best analog substrate”. In addition, the k2/Ks in series [6] stood at 1650 M⁻¹ s⁻¹; in [7], 350 M⁻¹ s⁻¹; in series [3] it was 25 M⁻¹ s⁻¹; in series [4] (N115S, pre-steady state), 250 M⁻¹ s⁻¹; in series [2] (L55H-N115S, pre-steady state), 2600 M⁻¹ s⁻¹; in [5] (L55H, pre-steady state), 160 M⁻¹ s⁻¹. In addition, the “Specificity change (R)” value in series [4] is on record as “(150)”; in series [2], “(460)”; in series [5], “(3.4)”. Also, the dissociation constant (Kd) in series [9] worked out at 190 µM; in series [10], 20 µM. For the same molecule, the “increase of affinity by Ser (N119S)” value in series [10] (relative KD, EI versus EI-N119S) was 10 fold.

B1: N119Y: Dd-NDPK with Tyr at the position of Asn 119, unstable and poorly active (protein, UniProt P22887 1-155, looked up, variant N119Y)
Nucleoside diphosphate …: MSTNKVNKERTFLAVKPDGVARGLVGEIIARYEKKGFVLVGLKQLVPTKDLAESHYAEHKERPFFGGLVSFITSGPVVAMVFEGKGVVASARLMIGVTNPLASAPGSIRGDFGVDVGRYIIHGSDSVESANREIALWFKPEELLTEVKPNPNLYE
For B1, the “activity relative to wild type” value in [1] (Dd-NDPK mutant, partially purified) is on record as 0.05 % of wild type activity.

B2: Dd-NDPK: wild type NDP kinase from Dictyostelium discoideum (protein, UniProt P22887 1-155, looked up)
Nucleoside diphosphate …: B1 Nucleoside diphosphate … with Y119N
In series [1], B2 gave a specific activity of 2000 U/mg.

Source of the values: patent US20030207830A1, “Mutant NDP kinases for antiviral nucleotide analog activation and therapeutic uses thereof” (priority 2002, published 2003).
